# According to patent US20260216350A1 (UNIVERSITY OF NOTRE DAME DU LAC, priority 2023, published 2026):
# How the values were obtained:
# [1] = test system: STZ diabetic mice; test: Long term blood glucose control study (serial dosing); type: in vivo, mouse
# Description: (§1) STZ Mouse Model. […] Specifics of these studies are detailed here:
# Long term blood glucose control study. Healthy mice were first weighed individually and injected STZ following the above protocol. […] Mice were fed after treatment injection and brought back to their cage on Day 0. […] For all other groups, 48 h post treatment injection, mice were fasted for 5 h to adjust for time since last eating, followed with BGL measurement. The same process was repeated at 96 h following treatment injection. After measurement, mice were weighed individually. Mice were then re-dosed with the same formula every 5 days, collecting BGL at 48 h and 96 h following treatment with a 5 h fast; the process was repeated for one month.
# [2] = test system: STZ-induced diabetic mice; test: Multi-day blood glucose control study; type: in vivo, mouse
# Description: as §1
# Multi-Day Blood Glucose Control Study. […] BGL was then monitored for an additional 3 h following IPGTT. Mice were fasted during the entire IPGTT period with free access to water. Mice were fed after IPGTT. At 48 h post treatment, mice were fasted for 5 h followed by an IPGTT challenge for 3 h. Mice were then fed at the end of IPGTT. The IPGTT challenges were repeated on Day 4 and Day 6. Area under the curve (AUC) for each IPGTT cycle was calculated using the trapezoidal rule and statistically analyzed using GraphPad Prism v 9.0.
# [3] = target: insulin receptor (Homo sapiens, UniProt P06213); details: cited from earlier work
# [4] = in vivo; cited from earlier work
# [5] = test system: STZ-induced diabetic mouse model; test: Determination of functional formulation and dose in STZ mice; details: unmodified insulin 0.17 mg/kg; complexes 0.17 or 3.5 mg/kg Insulin-DiPBA
# Description: (§2) STZ Mouse Model. A chemically induce diabetes mouse model were established in male C57BL6/J mice (8 weeks, 25 g, Jackson Laboratory) using streptozotocin (STZ), according to common protocols. Mice were fasted for 4 h prior to injection with STZ at 150 mg/kg i.p., dissolved in pH 4.5 citrate buffer. Treated mice were fasted for an additional 0.5 h and were then supplied with food and water as normal. Treated mice were allowed to develop diabetes for 7 d, and diabetes was verified using handheld blood glucose meters (CVS), targeting unfasted blood glucose level (BGL) above 600 mg/dL.
# Mice were challenged with three intraperitoneal glucose tolerance tests (IPGTT).
# [6] = test system: STZ diabetic mice; test: In vivo activity verification in overnight-fasted STZ diabetic mice; set-up: species or system mouse; details: 0.1 mg/kg s.c.
# Description: as §2
# In Vivo Activity Verification. STZ induced diabetic mice were fasted for 8 h on the eighth day following induction, and mice with BGL>350 mg/dL in their overnight fasted state were randomly divided into groups (n=4/group). […] BGLs for each group were continuously monitored for 6 h after treatment. Mice were fasted during the entire experiment.
# insulin receptor, sequence (P06213 28-758 limits assumed, species assumed): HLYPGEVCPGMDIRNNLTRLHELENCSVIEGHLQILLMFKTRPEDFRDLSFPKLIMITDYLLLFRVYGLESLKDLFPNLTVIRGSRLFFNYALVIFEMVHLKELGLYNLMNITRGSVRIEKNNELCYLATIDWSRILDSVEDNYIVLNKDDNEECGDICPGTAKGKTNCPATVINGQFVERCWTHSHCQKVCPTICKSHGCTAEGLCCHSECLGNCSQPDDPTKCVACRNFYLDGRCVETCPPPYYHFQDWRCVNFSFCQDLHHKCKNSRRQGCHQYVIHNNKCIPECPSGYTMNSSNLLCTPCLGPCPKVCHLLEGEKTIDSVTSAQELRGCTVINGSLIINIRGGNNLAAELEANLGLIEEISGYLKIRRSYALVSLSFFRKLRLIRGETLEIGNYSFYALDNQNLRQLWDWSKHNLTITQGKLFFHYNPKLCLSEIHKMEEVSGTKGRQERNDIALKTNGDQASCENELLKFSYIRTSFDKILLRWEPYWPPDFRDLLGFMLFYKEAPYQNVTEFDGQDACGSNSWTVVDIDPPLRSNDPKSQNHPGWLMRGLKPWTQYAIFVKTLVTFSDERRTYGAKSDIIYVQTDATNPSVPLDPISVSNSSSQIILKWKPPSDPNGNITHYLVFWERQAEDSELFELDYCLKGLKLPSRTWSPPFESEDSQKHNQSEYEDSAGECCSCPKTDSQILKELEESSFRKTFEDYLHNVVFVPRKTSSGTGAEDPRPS
# insulin receptor, sequence (P06213 763-1382 partner limits assumed, species assumed): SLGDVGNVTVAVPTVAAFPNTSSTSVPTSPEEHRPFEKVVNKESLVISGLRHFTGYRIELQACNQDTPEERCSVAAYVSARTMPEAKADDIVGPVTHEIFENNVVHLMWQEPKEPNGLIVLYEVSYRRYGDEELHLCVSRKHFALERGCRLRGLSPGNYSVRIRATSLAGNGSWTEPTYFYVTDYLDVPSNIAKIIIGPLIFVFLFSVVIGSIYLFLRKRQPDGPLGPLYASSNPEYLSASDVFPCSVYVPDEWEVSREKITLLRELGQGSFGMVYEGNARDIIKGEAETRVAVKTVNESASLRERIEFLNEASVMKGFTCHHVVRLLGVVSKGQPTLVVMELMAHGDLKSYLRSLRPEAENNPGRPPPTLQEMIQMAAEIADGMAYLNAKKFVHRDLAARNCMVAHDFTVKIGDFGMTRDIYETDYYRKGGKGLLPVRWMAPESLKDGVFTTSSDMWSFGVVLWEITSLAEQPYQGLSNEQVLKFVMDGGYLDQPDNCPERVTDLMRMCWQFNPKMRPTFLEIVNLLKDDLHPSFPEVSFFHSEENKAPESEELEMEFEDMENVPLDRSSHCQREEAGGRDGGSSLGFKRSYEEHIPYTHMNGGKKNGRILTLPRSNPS
substance,measurement,setting,value
Insulin Detemir,blood glucose throughout 5 weeks of repeat dosing,"[1]; complexes every 5 d, 10.4 mg/kg, Insulin Detemir daily 1 IU/kg, 3 h fast",did not provide sustained blood glucose correction
same,body weight reduction from pre-STZ levels,[1]; daily dosing,~ 20%
same,blood glucose control with daily administration,[2]; 1 IU/kg daily,did not sustain blood glucose control when this was not combined with overnight fasting
same,"blood glucose level after 3 h, day 0 challenge","[2]; overnight-fasted, complexes 10.4 mg/kg, Insulin Detemir 1 IU/kg",71 mg/dL
same,insulin receptor binding affinity relative to unmodified insulin,[3],~ 25%
Insulin Glargine,duration of action,[4],24 to 36 h
"Insulin: recombinant human insulin, unmodified",BGL correction over three IPGTT cycles,[5],failed during the first IPGTT cycle
same,time after which blood glucose increased,[6],~ 120 min
